This is an account of results in article PMC12415608 (Molecular biology of the cell, 2025).

In this experiment the target is PaFimX (Pseudomonas aeruginosa, UniProt Q9HUK6). The experiment can be described thus: isothermal titration calorimetry. The class given is binding.

In turn, `Nc1nc2c(ncn2[C@@H]2O[C@@H]3CO[P@](=O)(O)O[C@H]4[C@@H](O)[C@H](n5cnc6c(=O)[nH]c(N)nc65)O[C@@H]4CO[P@](=O)(O)O[C@H]3[C@H]2O)c(=O)[nH]1` [cdG] came in with a Kd of 0.144 µM.
